Patent publication US11628144B2, “Iniparib formulations and uses thereof” (TriAct Therapeutics, Inc., priority 2017, dated 2023)
In brackets after ≈: the same amount, converted by molar mass.

What was measured:
[1] = test system: cancer cells, including drug resistant cell lines; conditions: cited from earlier work
[2] = tissues including brain and cerebrospinal fluid (CSF); cited from earlier work
[3] = Solubility of iniparib in purified water; assay type: physicochemical
[4] = molecular target: poly [ADP-ribose] polymerase 1 (PARP1) (Homo sapiens, UniProt P09874); conditions: observed in several studies; cited from earlier work
poly [ADP-ribose] polymerase 1 (PARP1), sequence (P09874 whole entry, species assumed): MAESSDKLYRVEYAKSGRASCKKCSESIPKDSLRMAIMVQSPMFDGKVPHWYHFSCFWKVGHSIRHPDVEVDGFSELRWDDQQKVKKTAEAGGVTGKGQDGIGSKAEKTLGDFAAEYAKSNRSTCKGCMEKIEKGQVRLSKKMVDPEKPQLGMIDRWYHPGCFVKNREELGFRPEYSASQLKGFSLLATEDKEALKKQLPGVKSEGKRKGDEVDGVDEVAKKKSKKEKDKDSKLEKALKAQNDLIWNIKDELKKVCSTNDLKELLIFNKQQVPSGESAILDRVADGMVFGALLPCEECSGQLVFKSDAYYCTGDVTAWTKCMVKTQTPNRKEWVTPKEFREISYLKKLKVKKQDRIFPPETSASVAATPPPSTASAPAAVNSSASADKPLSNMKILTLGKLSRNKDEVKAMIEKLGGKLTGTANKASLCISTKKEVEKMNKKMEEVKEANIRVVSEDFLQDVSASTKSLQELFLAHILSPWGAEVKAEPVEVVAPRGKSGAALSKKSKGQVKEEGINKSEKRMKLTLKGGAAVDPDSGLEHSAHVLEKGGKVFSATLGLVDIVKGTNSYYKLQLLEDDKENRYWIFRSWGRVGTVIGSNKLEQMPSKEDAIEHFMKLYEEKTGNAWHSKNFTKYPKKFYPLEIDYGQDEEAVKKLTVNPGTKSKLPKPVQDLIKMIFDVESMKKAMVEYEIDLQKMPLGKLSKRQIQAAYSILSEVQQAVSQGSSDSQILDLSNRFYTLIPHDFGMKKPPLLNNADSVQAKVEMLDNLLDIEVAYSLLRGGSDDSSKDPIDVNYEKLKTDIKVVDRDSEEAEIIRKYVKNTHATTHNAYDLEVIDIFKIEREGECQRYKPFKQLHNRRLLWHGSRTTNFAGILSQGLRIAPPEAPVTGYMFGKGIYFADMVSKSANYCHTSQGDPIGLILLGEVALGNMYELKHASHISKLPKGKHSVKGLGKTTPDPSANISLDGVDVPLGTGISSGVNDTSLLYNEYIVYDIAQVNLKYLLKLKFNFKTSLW

solubility [3]: ~182 µg/mL (≈ 623 µM)
Compound: NC(=O)c1ccc(I)c([N+](=O)[O-])c1 [Iniparib, 4-iodo-3-nitrobenzamide]
activity against cancer cells in vitro [1]: active against a broad range of cancer cells in vitro
distribution into tissues [2]: distributes rapidly and widely into tissues, including the brain and cerebrospinal fluid (CSF)
potency against PARP1 [4]: low potency
